In US8338468B2, “Microbicidal composition” (ISP Investments Inc., priority 2005, dated 2012):
Several values for one entry are separate records, joined by “and”; a condition that tells them apart may be missing. Equal values may be shown once. Read-outs that look alike come from different tables or passages of the source. Values belong to the molecule of their own block, whether it stands above or below them.

Legend:
Experiment in all cases: Synergy test (MIC) in Ringer's Solution
Format in all cases: cell-based
Escherichia coli = details: 30° C., about 10^5 microbes per ml; for MIC: Escherichia coli
Experimental: (§1) Synergy tests were conducted using microbiological standard methods. Ringer's Solution (Merck, VWR) was used for testing bacteria, yeast and mould species. In jars 100 ml aliquots of sterile Ringer Solution are dosed with the preservatives and a known inoculum of the single test species is added. A control sample containing no preservative is also used to ascertain the biocide effect on the inoculum. The prepared jars were incubated at 30° C. Aliquots are streaked out at regular intervals on specific nutrient agar so that an estimate of kill time can be determined at the same time as effective concentration. TSA (tryptic soy agar) was used for bacteria; MEA (malt extract agar) was used for yeast and moulds. The plates were visually evaluated for microbial growth to determine the MIC after various incubation times at 30° C. The synergy of the combinations of the present invention was determined against four bacteria, Pseudomonas aeruginosa, Escherichia coli, Proteus Mirabilis, and Staphylococcus aureus, a yeast, Candida albicans and two moulds Trichoderma viride and Aspergillus niger. The single micro-organisms were used at a concentration of about 10^5 microbes per ml. these micro-organisms are standard reference organisms and representative of natural contaminants in many consumer and industrial applications. […] In each test first component (A) was MIT and the second component was phenylethylalcohol (B).

Aspergillus niger = details: 30° C., about 10^5 microbes per ml; for MIC: Aspergillus niger
Experimental: as §1

Proteus Mirabilis = details: 30° C., about 10^5 microbes per ml; for MIC: Proteus mirabilis
Experimental: as §1

Pseudomonas aeruginosa = details: 30° C., about 10^5 microbes per ml; for MIC: Pseudomonas aeruginosa
Experimental: as §1

Candida albicans = details: 30° C., about 10^5 microbes per ml; for MIC: Candida albicans
Experimental: as §1

Trichoderma viride = details: 30° C., about 10^5 microbes per ml; for MIC: Trichoderma viride
Experimental: as §1

Staphylococcus aureus = details: 30° C., about 10^5 microbes per ml; for MIC: Staphylococcus aureus
Experimental: as §1

[1] = MIT alone, Test 1 single, Test 2.1-2.3 parallel samples, read-out: QA, ppm MIT acting alone, which produced an end point (MIC)
[2] = MIT alone, Test 1 single, Test 2.1-2.3 parallel samples
[3] = phenylethylalcohol alone, read-out: QB, ppm phenylethylalcohol acting alone, which produced an end point (MIC)

SMILES: Cn1sccc1=O [MIT, 2-methyl-3-isothiazolone]
MIC (Escherichia coli; [1]): 25 µg/mL | QA, ppm MIT acting alone, which produced an end point (MIC) (Escherichia coli; [2]): 50 ppm | MIC (Aspergillus niger; [1]): 50 µg/mL | QA, ppm MIT acting alone, which produced an end point (MIC) (Proteus Mirabilis; [2]): 25 ppm | MIC (Proteus Mirabilis; [1]): 50 µg/mL | QA, ppm MIT acting alone, which produced an end point (MIC) (Pseudomonas aeruginosa; [2]): 25 ppm | MIC (Pseudomonas aeruginosa; [1]): 50 µg/mL | MIC (Candida albicans; [1]): 50 µg/mL | QA, ppm MIT acting alone, which produced an end point (MIC) (Trichoderma viride; [2]): 50 ppm | MIC (Trichoderma viride; [1]): 75 µg/mL | QA, ppm MIT acting alone, which produced an end point (MIC) (Staphylococcus aureus; [2]): 50 ppm | MIC (Staphylococcus aureus; [1]): 75 µg/mL

MIC (Escherichia coli; [3]): 2500 µg/mL | QB, ppm phenylethylalcohol acting alone, which produced an end point (MIC) (Escherichia coli; phenylethylalcohol alone): 2000 ppm | MIC (Aspergillus niger; [3]): 1500 µg/mL | QB, ppm phenylethylalcohol acting alone, which produced an end point (MIC) (Aspergillus niger; phenylethylalcohol alone): 2000 ppm | MIC (Proteus Mirabilis; [3]): 2000 µg/mL | MIC (Pseudomonas aeruginosa; [3]): 2000 µg/mL | QB, ppm phenylethylalcohol acting alone, which produced an end point (MIC) (Pseudomonas aeruginosa; phenylethylalcohol alone): 2500 ppm | MIC (Candida albicans; [3]): 2000 µg/mL | QB, ppm phenylethylalcohol acting alone, which produced an end point (MIC) (Candida albicans; phenylethylalcohol alone): 2500 ppm and 1500 ppm | MIC (Trichoderma viride; [3]): 2000 µg/mL | QB, ppm phenylethylalcohol acting alone, which produced an end point (MIC) (Trichoderma viride; phenylethylalcohol alone): 3000 ppm | MIC (Staphylococcus aureus; [3]): 2000 µg/mL | QB, ppm phenylethylalcohol acting alone, which produced an end point (MIC) (Staphylococcus aureus; phenylethylalcohol alone): 1500 ppm
SMILES: OCCc1ccccc1 [phenylethylalcohol]
